Assays:
DU 145 cells = assay: MTT cell viability assay on DU 145 prostate cancer cells; type: cell-based, human; conditions: 72 hours; for IC50: ± SD
Protocol: (§1) HeLa, MCF-7 and MDA-MB-231 cells were obtained from Sigma-Aldrich and maintained as reported previously. MRC-5, PC-3, DU 145 cells were purchased from American Type Culture Collection (ATCC, Manassas, VA, USA). PC-3 and DU 145 were maintained in RPMI medium (Sigma-Aldrich) whereas MRC-5 cells were maintained in DMEM medium (Sigma-Aldrich). All media were complemented with 10% Fetal bovine serum (FBS, Sigma-Aldrich) 2 mM L-glutamine, 0.01% streptomycin and 0.005% ampicillin (Sigma-Aldrich). Cells were cultured under standard conditions in a 37 °C incubator containing 5% CO2 in 95% humidity.
(§2) Each test compound was dissolved in cell culture grade DMSO (Molar Chemicals, Halásztelek, Hungary) in a final concentration of […]. Antiproliferative action of the synthesized steroids was investigated by MTT assay. An amount of 5000 cells/well were seeded into 96 well plates. Twenty-four hours post seeding, all cell lines were treated with each compound in 10 and 30 μM concentrations for 72 hours. […] After 72 hours, cells were washed with PBS and incubated with culture medium containing 0.5 mg/mL MTT (3-(4, 5-dimethylthiazolyl-2)-2,5-diphenyltetrazolium bromide) reagent (SERVA, GmbH, Heidelberg, Germany) for an hour at 37 °C. Formazan crystals were solubilized in DMSO and extinction was measured at 570 nm using a Synergy HTX plate reader (BioTech-Hungary, Budapest, Hungary). MTT assays were performed at least three times using four independent biological replicates. Data were normalized to solvent controls and the graphical representation of the obtained data as well as the calculation of IC50 values were carried out by GraphPad Prism 7 software (GraphPad Software; San Diego, CA, USA).

HeLa cells = assay: MTT cell viability assay on HeLa cervical cancer cells; type: cell-based, human; conditions: 72 hours; for IC50: ± SD
Protocol: as §1, §2

Bax mRNA in PC-3 cells = assay: RT-qPCR of Bax mRNA; type: cell-based, human; conditions: PC-3, 48 h; 4e, 4j 5 µM; cisplatin 200 µM; GAPDH reference
Protocol: (§3) PC-3 cells were seeded at 2 × 10^6 cells/well density in 6 well plates. On the following day cells were treated with 5 µM of either compound 4e or 4j or with 200 µM of cisplatin. Cells were collected 48-hours post-treatment and total cellular RNA was isolated using RNeasy® Mini Kit (QIAGEN, Hilden, Germany) according to the manufacturer’s recommendation. RNA (2 µg) was reverse transcribed (TaqMan® Reverse Transcription kit, Applied Biosystems, Foster City, CA, USA) in 50 µL total volume. PCR reactions were performed on PicoReal™ Real-time PCR (Thermo Scientific, Walthan, MA, USA) using SYBRGreen qPCR Master Mix (Thermo Scientific) with an input of 1 µL cDNA. Each primer (Table 3) was used at 200 nM concentration. Relative transcript levels were determined by the ΔΔCt analysis using GAPDH as reference gene. Experiments were repeated three times with three biological replicates.

MCF-7 cells = assay: MTT cell viability assay on MCF-7 breast cancer cells; type: cell-based, human; conditions: 72 hours; for IC50: ± SD
Protocol: as §1, §2

PC-3 cells [1] = assay: Annexin V/PI apoptosis detection assay (flow cytometry); type: cell-based, human; conditions: PC-3, 5 µM, 48-hour treatment
Protocol: PC-3 cells were seeded at 2 × 10^6 cells/well density in 6-well plates. On the following day cells were treated with 5 µM of either compound 4e or 4j or with 200 µM of cisplatin (Accord Healthcare Ltd., Middlesex, UK). After 48-hour treatment, cells were collected and a Dead Cell Apoptosis Kit containing AnnexinV-FITC and propidium iodide (Life Technologies-Hungary, Budapest, Hungary) was used according to the manufacturer’s recommendation. Fluorescence intensities of at least 10,000 cells/sample were measured by FACSCalibur™ (BD Biosciences, Franklin Lakes, CA, USA) and data were analyzed by FlowJo V10 software (BD Biosciences, Franklin Lakes, NJ, USA). Experiments were repeated three times using triplicates.

MRC-5 cells = assay: MTT cell viability assay on non-cancerous MRC-5 fibroblasts; type: cell-based; conditions: for Mean values (%) of primary growth inhibitory screen (viability in %), MRC-5 / IC50: 72 hours, MTT; for IC50: ± SD
Protocol: as §1, §2

PC-3 cells [2] = assay: MTT cell viability assay on PC-3 prostate cancer cells; type: cell-based, human; conditions: for Mean values (%) of primary growth inhibitory screen (viability in %), PC-3 / IC50: 72 hours, MTT; for IC50: ± SD; for antiproliferative potency against PC-3 prostate cancer cells compared to MRC-5 non-cancerous fibroblasts: primary screen
Protocol: as §1, §2

MDA-MB-231 cells = assay: MTT cell viability assay on MDA-MB-231 breast cancer cells; type: cell-based, human; conditions: 72 hours; for IC50: ± SD
Protocol: as §1, §2

[3] = tested on: caspase 3 mRNA in PC-3 cells; assay: RT-qPCR of caspase 3 mRNA; type: cell-based, human; conditions: PC-3, 48 h; 4e, 4j 5 µM; cisplatin 200 µM; GAPDH reference
Protocol: as §3

| Compound | Mean values (%) of primary growth inhibitory screen (viability in %), DU 145 (DU 145 cells; 10 µM) [%] | Mean values (%) of primary growth inhibitory screen (viability in %), DU 145 (DU 145 cells; 30 µM) [%] | IC50 (DU 145 cells) [µM] | Mean values (%) of primary growth inhibitory screen (viability in %), HeLa (HeLa cells; 10 µM) [%] | Mean values (%) of primary growth inhibitory screen (viability in %), HeLa (HeLa cells; 30 µM) [%] | IC50 (HeLa cells) [µM] | Bax mRNA expression level compared to untreated control (Bax mRNA in PC-3 cells) | Mean values (%) of primary growth inhibitory screen (viability in %), MCF-7 (MCF-7 cells; 10 µM) [%] | Mean values (%) of primary growth inhibitory screen (viability in %), MCF-7 (MCF-7 cells; 30 µM) [%] | IC50 (MCF-7 cells) [µM] | percentage of annexin V-positive cells (Q2 + Q3) (PC-3 cells [1]) [%] | Mean values (%) of primary growth inhibitory screen (viability in %), MRC-5 (MRC-5 cells; 10 µM) [%] | Mean values (%) of primary growth inhibitory screen (viability in %), MRC-5 (MRC-5 cells; 30 µM) [%] | IC50 (MRC-5 cells) [µM] | Mean values (%) of primary growth inhibitory screen (viability in %), PC-3 (PC-3 cells [2]; 10 µM) [%] | Mean values (%) of primary growth inhibitory screen (viability in %), PC-3 (PC-3 cells [2]; 30 µM) [%] | IC50 (PC-3 cells [2]) [µM] | Mean values (%) of primary growth inhibitory screen (viability in %), MDA-MB-231 (MDA-MB-231 cells; 10 µM) [%] | Mean values (%) of primary growth inhibitory screen (viability in %), MDA-MB-231 (MDA-MB-231 cells; 30 µM) [%] | IC50 (MDA-MB-231 cells) [µM] | further results |
| --- | --- | --- | --- | --- | --- | --- | --- | --- | --- | --- | --- | --- | --- | --- | --- | --- | --- | --- | --- | --- | --- |
| COc1ccc(-n2nc3c(c2C)C[C@@]2(C)[C@@H](CC[C@@H]4[C@@H]2CC[C@]2(C)[C@@H](O)CC[C@@H]42)C3)cc1 [4e, 17β-Hydroxy-1′-(4″-methoxyphenyl)-5′-methylpyrazolo[3′,4′:3,2]-5α-androstane] | 23.3 | 5.5 | 3.6 ± 1.2 | 31.7 | 15.1 | 8.5 ± 0.6 | significantly increased | 20.9 | 14.0 | 5.5 ± 0.6 | 33.96 | 71.2 | 28.8 | 8.6 ± 1.3 | 28.4 | 10.8 | 4.2 ± 1.1 | 35.2 | 13.6 | 6.6 ± 0.9 | specificity in cancer cell toxicity (cancer cell lines vs MRC-5) (MRC-5 cells; primary screen, manifested already at 10 µM): utmost specificity; caspase 3 mRNA expression level compared to untreated control [3]: significantly increased |
| Cc1c2c(nn1-c1ccc([N+](=O)[O-])cc1)CC1CCC3C4CCC(O)C4(C)CCC3C1(C)C2 (stereo not drawn) [4j, 17β-Hydroxy-1′-(4″-nitrophenyl)-5′-methylpyrazolo[3′,4′:3,2]-5α-androstane] | 82.8 | 60.4 | 19.7 ± 1 | 60.5 | 64.6 | > 30 | significantly increased | 55.8 | 49.6 | 18.2 ± 3.9 | 37.89 | 99.1 | 99.8 | > 30 | 38.2 | 41.6 | 5.6 ± 1.1 | 83.8 | 80.6 | > 30 | antiproliferative potency against PC-3 prostate cancer cells compared to MRC-5 non-cancerous fibroblasts (PC-3 cells [2]; 10 µM): significantly higher; antiproliferative potency against PC-3 prostate cancer cells compared to MRC-5 non-cancerous fibroblasts (PC-3 cells [2]; 30 µM): significantly higher; caspase 3 mRNA expression level compared to untreated control [3]: significantly increased |
| Cc1c2c(nn1-c1ccc(C#N)cc1)C[C@@H]1CC[C@@H]3[C@H](CC[C@]4(C)C(=O)CC[C@@H]34)[C@@]1(C)C2 [5i, 1′-(4″-Cyanophenyl)-5′-methylpyrazolo[3′,4′:3,2]-5α-androst-17-one] | 83.3 | 79.9 | – | 42.2 | 36.4 | – | – | 53.2 | 39.4 | – | – | 90.4 | 87.9 | – | 56.2 | 70.0 | – | 70.6 | 59.7 | – | – |
| Cc1c2c(nn1-c1ccc([N+](=O)[O-])cc1)C[C@@H]1CC[C@@H]3[C@H](CC[C@]4(C)C(=O)CC[C@@H]34)[C@@]1(C)C2 [5j, 1′-(4″-Nitrophenyl)-5′-methylpyrazolo[3′,4′:3,2]-5α-androst-17-one] | 73.0 | 42.8 | 13.5 ± 1.1 | 47.4 | 29.4 | 10.4 ± 0.1 | – | 46.5 | 14.4 | 11.3 ± 2.8 | – | 94.8 | 44.6 | 25.5 ± 2.3 | 36.8 | 16.0 | 6.7 ± 1.1 | 83.5 | 71.7 | > 30 | antiproliferative potency against PC-3 prostate cancer cells compared to MRC-5 non-cancerous fibroblasts (PC-3 cells [2]; 10 µM): significantly higher; antiproliferative potency against PC-3 prostate cancer cells compared to MRC-5 non-cancerous fibroblasts (PC-3 cells [2]; 30 µM): significantly higher |
